In article PMC1262763, “Evolutionary selection across the nuclear hormone receptor superfamily with a focus on the NR1I subfamily (vitamin D, pregnane X, and constitutive androstane receptors)” (Nuclear Receptor, 2005):
Where a name gives a salt, the structure may show the parent alone.

Legend:
[1] = molecular target: T1, zebrafish PXR (Danio rerio, UniProt A5WYG8); assay: GAL4-LBD luciferase reporter transactivation, HepG2-NTCP cells; type: cell-based; conditions: concentration-response curve; normalized to […]α-androstan-3α-ol
T1 construct: gene nr1i2; LBD only, fused to GAL4 (tk-UAS-Luc reporter), transfected in HepG2-NTCP cells
T1 sequence (A5WYG8 144-430 limits assumed): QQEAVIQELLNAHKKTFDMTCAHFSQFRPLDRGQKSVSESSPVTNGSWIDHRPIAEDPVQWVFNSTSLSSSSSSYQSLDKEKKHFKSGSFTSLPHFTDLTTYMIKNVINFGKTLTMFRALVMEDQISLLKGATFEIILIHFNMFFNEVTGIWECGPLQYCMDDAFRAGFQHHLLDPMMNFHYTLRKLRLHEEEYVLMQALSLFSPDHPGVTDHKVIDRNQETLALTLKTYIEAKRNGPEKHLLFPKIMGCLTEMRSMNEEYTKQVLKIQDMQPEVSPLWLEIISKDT

[2] = molecular target: T2, human PXR (Homo sapiens, UniProt O75469); assay: luciferase reporter transactivation, HepG2-NTCP cells; type: cell-based; conditions: concentration-response curve, normalized to […] rifampicin
T2 construct: gene NR1I2; full-length receptor (DBD and LBD), transfected in HepG2-NTCP cells with CYP3A4-PXRE-Luc reporter
T2 sequence (O75469 1-434): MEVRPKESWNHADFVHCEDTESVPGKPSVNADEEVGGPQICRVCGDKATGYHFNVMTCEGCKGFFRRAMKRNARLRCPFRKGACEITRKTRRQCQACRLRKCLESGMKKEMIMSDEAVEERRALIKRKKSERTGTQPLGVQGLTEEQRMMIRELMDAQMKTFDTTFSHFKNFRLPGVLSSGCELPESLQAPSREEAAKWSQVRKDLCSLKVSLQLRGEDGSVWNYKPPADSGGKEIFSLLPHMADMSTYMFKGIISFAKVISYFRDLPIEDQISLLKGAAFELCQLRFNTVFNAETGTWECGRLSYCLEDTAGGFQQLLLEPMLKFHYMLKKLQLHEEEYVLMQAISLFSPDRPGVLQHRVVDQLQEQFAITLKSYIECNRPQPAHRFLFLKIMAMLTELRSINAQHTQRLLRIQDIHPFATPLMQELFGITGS

[3] = molecular target: T3, Xenopus laevis BXRα (Xenopus laevis, UniProt Q91839); assay: GAL4-LBD luciferase reporter transactivation, HepG2-NTCP cells; type: cell-based; conditions: concentration-response curve; normalized to […] n-butyl-p-aminobenzoate
T3 construct: gene nr1i2.L; LBD only, fused to GAL4 (tk-UAS-Luc reporter), transfected in HepG2-NTCP cells
T3 sequence (Q91839 141-386 limits assumed): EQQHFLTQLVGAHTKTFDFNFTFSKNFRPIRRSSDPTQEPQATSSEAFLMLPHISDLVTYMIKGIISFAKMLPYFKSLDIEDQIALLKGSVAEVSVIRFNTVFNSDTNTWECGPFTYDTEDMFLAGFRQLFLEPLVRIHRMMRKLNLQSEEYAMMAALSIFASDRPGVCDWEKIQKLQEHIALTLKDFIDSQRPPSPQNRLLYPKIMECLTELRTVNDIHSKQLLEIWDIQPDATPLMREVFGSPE

[4] = molecular target: human VDR (Homo sapiens, UniProt P11473); conditions: maximal activator […] calcitriol
human VDR, sequence (P11473 whole entry): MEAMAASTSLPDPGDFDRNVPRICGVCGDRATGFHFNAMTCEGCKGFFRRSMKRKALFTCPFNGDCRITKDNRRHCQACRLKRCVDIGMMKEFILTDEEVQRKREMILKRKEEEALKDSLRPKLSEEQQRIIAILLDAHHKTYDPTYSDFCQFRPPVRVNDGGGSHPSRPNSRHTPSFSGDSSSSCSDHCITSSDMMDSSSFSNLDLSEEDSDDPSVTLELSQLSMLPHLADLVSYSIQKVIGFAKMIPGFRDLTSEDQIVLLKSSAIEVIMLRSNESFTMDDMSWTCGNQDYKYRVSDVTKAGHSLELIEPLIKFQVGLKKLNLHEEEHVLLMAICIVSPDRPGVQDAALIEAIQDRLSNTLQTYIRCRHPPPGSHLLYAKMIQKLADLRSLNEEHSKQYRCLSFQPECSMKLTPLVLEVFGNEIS

## CC(=O)[C@H]1CC[C@H]2[C@@H]3CC=C4C[C@@H](O)CC[C@]4(C)[C@H]3CC[C@]12C [pregnenolone]
[1]
  GAL4-LBD luciferase reporter transactivation, HepG2-NTCP cells: zebrafish PXR is activated by pregnenolone, scymnol sulfate, and the benzoate analog
[2]
  luciferase reporter transactivation, HepG2-NTCP cells: Human PXR is activated by micromolar concentrations of the steroid pregenonolone

## CCCOC(=O)c1ccc(O)cc1 [n-propyl-p-hydroxybenzoate]
[3]
  GAL4-LBD luciferase reporter transactivation, HepG2-NTCP cells: n-propyl-p-hydroxybenzoate, which activates BXRα and BXRβ robustly
[1]
  GAL4-LBD luciferase reporter transactivation, HepG2-NTCP cells: zebrafish PXR is activated by pregnenolone, scymnol sulfate, and the benzoate analog
[2]
  luciferase reporter transactivation, HepG2-NTCP cells: the early bile salts petromyzonol sulfate and scymnol sulfate, 3-ketolithocholic acid, and the benzoate analog

## C[C@H](CCC(=O)O)[C@H]1CC[C@H]2[C@@H]3CC[C@@H]4CC(=O)CC[C@]4(C)[C@H]3CC[C@]12C [3-ketolithocholic acid]
[4]
  efficacy relative to calcitriol: 15%
[2]
  luciferase reporter transactivation, HepG2-NTCP cells: the early bile salts petromyzonol sulfate and scymnol sulfate, 3-ketolithocholic acid, and the benzoate analog

## C[C@H](CCCOS(=O)(=O)O)[C@H]1CC[C@H]2[C@@H]3[C@H](O)C[C@H]4C[C@H](O)CC[C@]4(C)[C@H]3C[C@H](O)[C@]12C [petromyzonol sulfate]
[2]; OATP co-transfected
  luciferase reporter transactivation, HepG2-NTCP cells: the early bile salts petromyzonol sulfate and scymnol sulfate, 3-ketolithocholic acid, and the benzoate analog
